According to ChEMBL document CHEMBL4011587, “Design, synthesis and evaluation of novel ferulic acid-O-alkylamine derivatives as potential multifunctional agents for the treatment of Alzheimer's disease” (Eur J Med Chem, 2017):
Calls of active or inactive are those of the source. No cut-off for these calls is given here.

Experiments:
[1] = Inhibition of BuChE in rat serum using butyrylthiocholine chloride as substrate measured after 15 mins by Ellman's method; conditions: 0.25 h
Acetylcholinesterase [2] = molecular target: T1, Acetylcholinesterase (Rattus norvegicus, UniProt P37136); assay: Inhibition of AChE in rat cortex homogenates using acetylthiocholine chloride as substrate measured after 15 mins by Ellman's method; format: ADME
T1 sequence (P37136 whole entry): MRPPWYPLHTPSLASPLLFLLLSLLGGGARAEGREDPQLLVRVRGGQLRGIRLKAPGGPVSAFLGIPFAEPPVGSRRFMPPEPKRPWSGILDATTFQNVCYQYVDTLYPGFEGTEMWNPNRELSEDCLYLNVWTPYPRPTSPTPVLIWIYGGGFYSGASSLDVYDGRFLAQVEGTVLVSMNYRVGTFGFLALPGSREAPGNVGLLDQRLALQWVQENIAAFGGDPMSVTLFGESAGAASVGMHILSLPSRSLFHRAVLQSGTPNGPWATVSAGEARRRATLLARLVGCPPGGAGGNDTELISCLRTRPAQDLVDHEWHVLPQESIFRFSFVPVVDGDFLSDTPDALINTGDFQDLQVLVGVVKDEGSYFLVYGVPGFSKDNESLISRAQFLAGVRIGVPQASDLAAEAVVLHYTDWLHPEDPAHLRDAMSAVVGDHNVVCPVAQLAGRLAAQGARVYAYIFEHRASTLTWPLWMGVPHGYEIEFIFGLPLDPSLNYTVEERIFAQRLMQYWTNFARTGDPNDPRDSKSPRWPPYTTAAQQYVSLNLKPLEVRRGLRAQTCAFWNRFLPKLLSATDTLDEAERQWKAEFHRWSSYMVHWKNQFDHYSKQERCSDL

[3] = molecular target: Amyloid-beta precursor protein (Homo sapiens) (UniProt P05067); assay: Inhibition of amyloid beta (1 to 42) (unknown origin) self-aggregation at 25 uM after 24 hrs by thioflavin-T fluorescence assay relative to control
Sequence of Amyloid-beta precursor protein (Homo sapiens) (P05067 whole entry): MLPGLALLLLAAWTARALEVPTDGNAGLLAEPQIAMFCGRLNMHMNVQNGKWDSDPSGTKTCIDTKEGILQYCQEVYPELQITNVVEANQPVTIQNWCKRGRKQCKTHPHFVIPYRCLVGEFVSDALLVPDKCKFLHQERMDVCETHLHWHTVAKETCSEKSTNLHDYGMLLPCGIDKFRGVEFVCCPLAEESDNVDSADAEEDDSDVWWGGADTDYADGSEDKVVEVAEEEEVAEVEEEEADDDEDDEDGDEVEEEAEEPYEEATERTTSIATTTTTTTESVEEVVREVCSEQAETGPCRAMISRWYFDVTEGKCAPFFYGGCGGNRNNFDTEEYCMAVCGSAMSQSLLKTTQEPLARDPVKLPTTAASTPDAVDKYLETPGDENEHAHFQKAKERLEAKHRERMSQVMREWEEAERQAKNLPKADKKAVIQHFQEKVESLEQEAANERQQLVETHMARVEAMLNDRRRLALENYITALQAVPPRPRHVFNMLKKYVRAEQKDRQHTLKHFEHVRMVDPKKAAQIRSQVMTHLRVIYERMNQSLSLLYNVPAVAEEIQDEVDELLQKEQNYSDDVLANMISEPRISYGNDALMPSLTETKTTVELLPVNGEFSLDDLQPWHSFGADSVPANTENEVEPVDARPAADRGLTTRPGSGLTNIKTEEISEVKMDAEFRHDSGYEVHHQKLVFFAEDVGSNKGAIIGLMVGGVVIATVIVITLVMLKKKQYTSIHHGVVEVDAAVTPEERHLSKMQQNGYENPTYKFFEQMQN

Cholinesterase [4] = molecular target: Cholinesterase (Equus caballus, UniProt P81908); assay: Inhibition of equine serum BuChE using butyrylthiocholine chloride as substrate measured after 15 mins by Ellman's method
Sequence of Cholinesterase (Equus caballus, UniProt P81908) (P81908 whole entry): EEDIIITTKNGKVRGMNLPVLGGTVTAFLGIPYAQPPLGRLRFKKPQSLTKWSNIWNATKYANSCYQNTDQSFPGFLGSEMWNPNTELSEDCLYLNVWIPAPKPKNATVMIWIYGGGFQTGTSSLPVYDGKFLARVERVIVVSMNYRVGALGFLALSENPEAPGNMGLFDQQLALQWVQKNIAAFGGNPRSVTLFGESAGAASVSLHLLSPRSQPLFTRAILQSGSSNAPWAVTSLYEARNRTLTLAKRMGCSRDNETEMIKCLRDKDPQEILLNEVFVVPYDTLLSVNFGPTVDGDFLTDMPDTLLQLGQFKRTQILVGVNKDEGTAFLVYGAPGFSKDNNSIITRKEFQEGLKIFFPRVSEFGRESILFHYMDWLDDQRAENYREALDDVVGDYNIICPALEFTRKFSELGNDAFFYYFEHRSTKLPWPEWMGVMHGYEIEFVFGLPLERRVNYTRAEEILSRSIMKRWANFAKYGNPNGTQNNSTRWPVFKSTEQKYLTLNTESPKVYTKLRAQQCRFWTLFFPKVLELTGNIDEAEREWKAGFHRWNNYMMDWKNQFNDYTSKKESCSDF

[5] = Selectivity index, ratio of IC50 for electric eel AChE to IC50 for equine serum BuChE
Acetylcholinesterase [6] = molecular target: T2, Acetylcholinesterase (Electrophorus electricus, UniProt O42275); assay: Inhibition of electric eel AChE using acetylthiocholine chloride as substrate measured after 15 mins by Ellman's method; format: ADME
T2 sequence (O42275 whole entry): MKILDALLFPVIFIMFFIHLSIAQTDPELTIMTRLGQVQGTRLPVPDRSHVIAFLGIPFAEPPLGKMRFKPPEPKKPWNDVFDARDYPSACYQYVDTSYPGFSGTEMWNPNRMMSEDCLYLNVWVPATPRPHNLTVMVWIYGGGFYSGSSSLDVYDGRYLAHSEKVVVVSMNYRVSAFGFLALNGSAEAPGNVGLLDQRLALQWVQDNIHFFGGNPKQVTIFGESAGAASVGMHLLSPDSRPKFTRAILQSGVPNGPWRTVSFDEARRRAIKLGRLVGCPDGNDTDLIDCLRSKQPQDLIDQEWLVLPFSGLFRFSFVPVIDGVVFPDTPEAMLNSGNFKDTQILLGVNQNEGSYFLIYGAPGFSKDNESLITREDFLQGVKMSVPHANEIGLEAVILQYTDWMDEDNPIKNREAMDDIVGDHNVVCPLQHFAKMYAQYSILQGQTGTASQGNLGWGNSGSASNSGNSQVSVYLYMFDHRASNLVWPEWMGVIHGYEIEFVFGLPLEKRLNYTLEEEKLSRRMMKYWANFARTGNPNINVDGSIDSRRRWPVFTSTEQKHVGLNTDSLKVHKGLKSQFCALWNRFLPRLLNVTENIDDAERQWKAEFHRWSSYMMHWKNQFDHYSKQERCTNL

[7] = Antioxidant activity assessed as inhibition of AAPH-induced peroxyl radical generation measured as trolox equivalent at 1 to 10 uM preincubated for 15 mins followed by AAPH addition measured every minute for 90 mins by ORAC-FL assay; format: functional
Acetylcholinesterase [8] = molecular target: T2, Acetylcholinesterase; assay: Inhibition of electric eel AChE at 25 uM using acetylthiocholine chloride as substrate measured after 15 mins by Ellman's method relative to control; conditions: 0.25 h
PC-12 [9] = assay: Protection against H2O2-induced oxidative injury in rat PC12 cells assessed as increase in cell viability pretreated for 2 hrs followed by H2O2 challenge for 30 mins measured after 24 hrs by MTT assay; format: functional, cell-based
[10] = molecular target: Amyloid-beta precursor protein (Homo sapiens) (UniProt P05067); assay: Disaggregation of amyloid beta (1 to 42) (unknown origin) self aggregation at 25 uM after 24 hrs by thioflavin-T assay relative to control
Mus musculus [11] = assay: Acute toxicity in Kunming mouse assessed as effect on fur sleekness up to 1000 mg/kg, po measured after 4 hrs up to 14 days; format: organism-based; conditions: in vivo
[12] = molecular target: Amyloid-beta precursor protein (Homo sapiens) (UniProt P05067); assay: Inhibition of amyloid beta (1 to 42) (unknown origin) fibril formation at 25 uM after 24 hrs by transmission electron microscopic method
[13] = molecular target: Amyloid-beta precursor protein (Homo sapiens) (UniProt P05067); assay: Disaggregation of amyloid beta (1 to 42) (unknown origin) self aggregation at 25 uM after 24 hrs by transmission electron microscopic method
Mus musculus [14] = assay: Acute toxicity in Kunming mouse assessed as effect on water consumption up to 1000 mg/kg, po measured after 4 hrs up to 14 days; format: organism-based; conditions: in vivo
[15] = molecular target: Amyloid-beta precursor protein (Homo sapiens) (UniProt P05067); assay: Inhibition of amyloid beta (1 to 42) (unknown origin) self-aggregation at 50 uM after 24 hrs by thioflavin-T fluorescence assay relative to control
[16] = molecular target: Amyloid-beta precursor protein (Homo sapiens) (UniProt P05067); assay: Inhibition of amyloid beta (1 to 42) (unknown origin) self-aggregation after 24 hrs by thioflavin-T fluorescence assay
Mus musculus [17] = assay: Acute toxicity in Kunming mouse assessed as change in body weight up to 1000 mg/kg, po measured after 4 hrs up to 14 days; format: organism-based; conditions: in vivo
Mus musculus [18] = assay: Acute toxicity in Kunming mouse assessed as heart damage up to 1000 mg/kg, po measured after 14 days by macroscopic method; format: organism-based; conditions: in vivo, 336 h
PC-12 [19] = assay: Protection against H2O2-induced oxidative injury in rat PC12 cells assessed as cell viability at 1 uM pretreated for 2 hrs followed by H2O2 challenge for 30 mins measured after 24 hrs by MTT assay (reference value: 50.7%); format: functional; conditions: read-out: Activity
[20] = Selectivity index, ratio of IC50 for AChE in human erythrocytes to IC50 for BuChE in human serum
PC-12 [21] = assay: Cytotoxicity against rat PC12 cells assessed as cell viability up to 10 uM after 48 hrs by MTT assay; format: cell-based; conditions: pc-12, 48 h
Mus musculus [22] = assay: Acute toxicity in Kunming mouse assessed as effect on food consumption up to 1000 mg/kg, po measured after 4 hrs up to 14 days; format: organism-based; conditions: in vivo
[23] = Cytotoxicity against rat PC12 cells assessed as cell viability at 100 uM after 48 hrs by MTT assay relative to control; format: cell-based, PC-12; conditions: read-out: Activity
[24] = Selectivity ratio of IC50 for AChE in human erythrocytes to IC50 for electric eel AChE; format: ADME, cell-based
Mus musculus [25] = assay: Reversal of scopolamine-induced memory deficit in Kunming mouse assessed as increase in step down latency time administered orally treated for 1 hr before training followed by scopolamine challenge 30 mins before training measured 24 hrs after training trial by passive avoidance test; format: functional
[26] = molecular target: Amyloid-beta precursor protein (Homo sapiens) (UniProt P05067); assay: Inhibition of amyloid beta (1 to 42) (unknown origin) self-aggregation at 12.5 uM after 24 hrs by thioflavin-T fluorescence assay relative to control
Cholinesterase [27] = molecular target: Cholinesterase (Homo sapiens, UniProt P06276); assay: Inhibition of BuChE in human serum using butyrylthiocholine chloride as substrate measured after 15 mins by Ellman's method
Sequence of Cholinesterase (Homo sapiens, UniProt P06276) (P06276 whole entry): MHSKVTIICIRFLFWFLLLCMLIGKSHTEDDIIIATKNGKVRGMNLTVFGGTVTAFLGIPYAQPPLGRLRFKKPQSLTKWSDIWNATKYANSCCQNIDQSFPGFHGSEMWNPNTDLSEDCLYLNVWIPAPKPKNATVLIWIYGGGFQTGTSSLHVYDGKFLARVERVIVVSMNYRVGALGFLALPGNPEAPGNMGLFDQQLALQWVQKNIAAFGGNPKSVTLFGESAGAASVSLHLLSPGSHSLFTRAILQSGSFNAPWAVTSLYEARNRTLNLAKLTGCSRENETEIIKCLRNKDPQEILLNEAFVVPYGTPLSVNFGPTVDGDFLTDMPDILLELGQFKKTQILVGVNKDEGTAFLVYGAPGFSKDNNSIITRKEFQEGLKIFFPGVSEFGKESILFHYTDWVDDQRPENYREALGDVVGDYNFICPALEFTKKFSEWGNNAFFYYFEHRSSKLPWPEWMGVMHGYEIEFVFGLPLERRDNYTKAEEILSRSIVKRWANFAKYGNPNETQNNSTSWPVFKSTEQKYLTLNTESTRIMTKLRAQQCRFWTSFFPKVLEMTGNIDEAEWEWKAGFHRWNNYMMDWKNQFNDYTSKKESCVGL

[28] = Permeability of the compound in PBS/EtOH at 100 ug/ml after 18 hrs by PAMPA-BBB assay
PC-12 [29] = assay: Protection against H2O2-induced oxidative injury in rat PC12 cells assessed as cell viability at 10 uM pretreated for 2 hrs followed by H2O2 challenge for 30 mins measured after 24 hrs by MTT assay (reference value: 50.7%); format: functional; conditions: read-out: Activity
Acetylcholinesterase [30] = molecular target: Acetylcholinesterase (Homo sapiens, UniProt P22303); assay: Inhibition of AChE in human erythrocytes using acetylthiocholine chloride as substrate measured after 15 mins by Ellman's method; format: cell-based
Sequence of Acetylcholinesterase (Homo sapiens, UniProt P22303) (P22303 whole entry): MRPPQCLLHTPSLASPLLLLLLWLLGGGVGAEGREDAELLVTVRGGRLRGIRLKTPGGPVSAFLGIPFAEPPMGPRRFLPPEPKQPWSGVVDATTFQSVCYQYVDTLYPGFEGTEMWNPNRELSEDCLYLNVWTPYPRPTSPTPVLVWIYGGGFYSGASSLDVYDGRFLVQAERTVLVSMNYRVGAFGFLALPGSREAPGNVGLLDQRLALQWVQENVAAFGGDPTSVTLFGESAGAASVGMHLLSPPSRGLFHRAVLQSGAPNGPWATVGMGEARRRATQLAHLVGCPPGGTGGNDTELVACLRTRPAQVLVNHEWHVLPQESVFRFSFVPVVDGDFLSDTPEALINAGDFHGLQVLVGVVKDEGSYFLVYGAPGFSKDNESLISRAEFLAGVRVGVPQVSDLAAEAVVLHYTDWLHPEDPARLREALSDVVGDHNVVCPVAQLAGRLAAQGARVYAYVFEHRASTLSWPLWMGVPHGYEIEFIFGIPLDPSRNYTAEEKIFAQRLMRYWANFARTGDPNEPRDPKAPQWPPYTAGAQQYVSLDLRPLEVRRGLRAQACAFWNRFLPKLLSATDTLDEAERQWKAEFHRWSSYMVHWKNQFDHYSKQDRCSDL

Mus musculus [31] = assay: Acute toxicity in Kunming mouse assessed as kidney damage up to 1000 mg/kg, po measured after 14 days by macroscopic method; format: organism-based; conditions: in vivo, 336 h
Mus musculus [32] = assay: Acute toxicity in Kunming mouse assessed as liver damage up to 1000 mg/kg, po measured after 14 days by macroscopic method; format: organism-based; conditions: in vivo, 336 h
Mus musculus [33] = assay: Acute toxicity in Kunming mouse up to 1000 mg/kg, po measured after 4 hrs up to 14 days; format: organism-based; conditions: in vivo
Mus musculus [34] = assay: Reversal of scopolamine-induced memory deficit in Kunming mouse assessed as step down latency time at 21.3 mg/kg, po treated for 1 hr before training followed by scopolamine challenge 30 mins before training measured 24 hrs after training trial by passive avoidance test (reference value: 50.5 sec); format: functional

Molecule `COc1cc2c(cc1OC)C(=O)C(CC1CCN(Cc3ccccc3)CC1)C2` (configuration not stated) [DONEPEZIL] has an IC50 [1] of 4.42 µM.
Molecule `COc1cc(/C=C/C(=O)N2CCC(Cc3ccccc3)CC2)ccc1OCCCN1CCN(c2ccccn2)CC1` has an IC50 [1] of 62.1 µM, an IC50 (Acetylcholinesterase [2]) of 75.3 µM and an inhibition [3] of 36.3%. The IC50 (Cholinesterase [4]) was 0.86 µM, the Ratio IC50 [5] was 12.1 and the IC50 (Acetylcholinesterase [6]) was 10.4 µM. The Activity [7] was 0.47 equiv.
For `COc1cc(/C=C/C(=O)N2CCC(Cc3ccccc3)CC2)ccc1O`, the inhibition [3] was 65.9%, the IC50 (Cholinesterase [4]) was 5.7 µM and the inhibition at 25 µM (Acetylcholinesterase [8]) was < 5%. It also gave an Activity [7] of 1.2 equiv.
In the case of `COc1cc(/C=C/C(=O)O)ccc1O` [FERULATE], the inhibition at 25 µM (Acetylcholinesterase [8]) is reported as < 5% and the Activity [7] is reported as 1.1 equiv.
In the case of `COc1cc(/C=C/C(=O)N2CCC(Cc3ccccc3)CC2)ccc1OCCCN1CCc2ccccc2C1`, the IC50 [1] is reported as 2.28 µM, the IC50 (Acetylcholinesterase [2]) is reported as 1.89 µM and the inhibition [3] is reported as 55.6%. For the same molecule, the IC50 (Cholinesterase [4]) was 0.12 µM, the Ratio IC50 [5] was 18.4 and the IC50 (Acetylcholinesterase [6]) was 2.21 µM. The Activity [7] was 0.51 equiv.
With `COc1cc(/C=C/C(=O)N2CCC(Cc3ccccc3)CC2)ccc1OCCCCCN1CCc2ccccc2C1` the IC50 [1] was 11.4 µM, the IC50 (Acetylcholinesterase [2]) was 3.21 µM and the inhibition [3] was 50.7%. The IC50 (Cholinesterase [4]) was 0.31 µM, the Ratio IC50 [5] was 14 and the IC50 (Acetylcholinesterase [6]) was 4.33 µM. The Activity [7] was 0.47 equiv.
For `COc1cc(/C=C/C(=O)N2CCC(Cc3ccccc3)CC2)ccc1OCCCCCCN1CCc2ccccc2C1`, the IC50 [1] was 3.47 µM, the IC50 (Acetylcholinesterase [2]) was 21.5 µM and the inhibition [3] was 54.7%. For the same molecule, the IC50 (Cholinesterase [4]) was 0.88 µM, the Ratio IC50 [5] was 10.6 and the IC50 (Acetylcholinesterase [6]) was 9.32 µM. It also gave an Activity [7] of 0.49 equiv.
With `COc1cc(/C=C/C(=O)N2CCC(Cc3ccccc3)CC2)ccc1OCCCCN1CCc2ccccc2C1` the Activity (PC-12 [9]) was “Dose-dependent effect”, the IC50 [1] was 8.63 µM and the Activity [10] was 38.7%. For the same molecule, the Activity (Mus musculus [11]) was “Non-Toxic”, the inhibition [12] was “Active” and the Activity [13] was “Active”. For the same molecule, the Activity (Mus musculus [14]) was “Non-Toxic”, the inhibition [15] was 68.7% and the inhibition [16] was “Dose-dependent effect”. The Activity (Mus musculus [17]) was “Non-Toxic”, the IC50 (Acetylcholinesterase [2]) was 1.8 µM and the Activity (Mus musculus [18]) was “Non-Toxic”. The viability at 1 µM (PC-12 [19]) was 58.6%, the “Ratio IC50” value [20] was 54.6 and the Activity (PC-12 [21]) was “Non-Toxic”. For the same molecule, the Activity (Mus musculus [22]) was “Non-Toxic”, the viability at 48 h, 100 µM [23] was 85.8% and the inhibition [3] was 50.8%. For the same molecule, the Ratio IC50 [24] was 2 to 4, the IC50 (Cholinesterase [4]) was 0.021 µM and the Activity (Mus musculus [25]) was “Dose-dependent effect”. For the same molecule, the inhibition [26] was 31.2%, the IC50 (Cholinesterase [27]) was 0.07 µM and the Papp at 18 h, 100 ug/ml [28] was 18.4 ×10⁻⁶ cm/s. It also gave a Ratio IC50 [5] of 101, a viability at 10 µM (PC-12 [29]) of 76.7% and an IC50 (Acetylcholinesterase [6]) of 2.13 µM. The Activity [7] was 0.55 equiv, the IC50 (Acetylcholinesterase [30]) was 3.82 µM and the Activity (Mus musculus [31]) was “Non-Toxic”. For the same molecule, the Activity (Mus musculus [32]) was “Non-Toxic”, the Activity (Mus musculus [33]) was “Non-Toxic” and the Time (Mus musculus [34]) was 182.8 s.
With `COc1cc(/C=C/C(=O)N2CCC(Cc3ccccc3)CC2)ccc1OCCCN1CCN(Cc2ccccc2)CC1` the IC50 [1] was 41.2 µM, the IC50 (Acetylcholinesterase [2]) was 65 µM and the inhibition [3] was 50.3%. The IC50 (Cholinesterase [4]) was 1.22 µM, the Ratio IC50 [5] was 6.9 and the IC50 (Acetylcholinesterase [6]) was 8.4 µM. For the same molecule, the Activity [7] was 0.7 equiv.
With `COc1cc(/C=C/C(=O)N2CCC(Cc3ccccc3)CC2)ccc1OCCCCN1CCN(c2ncccn2)CC1` the IC50 [1] was 56.2 µM, the IC50 (Acetylcholinesterase [2]) was 44.3 µM and the inhibition [3] was 46%. The IC50 (Cholinesterase [4]) was 1.56 µM, the Ratio IC50 [5] was 7.9 and the IC50 (Acetylcholinesterase [6]) was 12.4 µM. It also gave an Activity [7] of 0.43 equiv.
